US8673325B1, “Cosmetic compositions comprising EPA and salicylic acid and methods of making and using same” (Dignity Sciences Limited, priority 2012, dated 2014)
≈ marks a conversion by molar mass, not a printed value. Read-outs that look alike come from different tables or passages of the source.

Test system: P. acnes NCTC737
Experiment: MIC and MBC against P. acnes by broth micro-dilution (CLSI M11-A5)
Type: cell-based
Conditions: for MIC: anaerobic 37° C., 48 h, lowest concentration preventing visible growth
Procedure: Neomycin (“NEO”) was obtained and used as a 10 mg/mL solution in sterile saline. P. acnes NCTC737 was obtained from the National Collection of Type Cultures (Porton Down, UK). Minimum inhibitory (MIC) and bactericidal (MBC) concentration determinations MICs and MBCs were determined against P. acnes by broth micro-dilution according to protocol M11-A5 published by the Clinical and Laboratory Standards Institute (CLSI, 2001). […] ([…] Workstation; Don Whitley Scientific Ltd., Shipley, UK). Absorbance readings (A600) for the bacterial suspensions were determined and fresh media was used to adjust the inoculums to 1×10^7 CFU/mL. Inoculum sizes were confirmed by diluting in phosphate-buffered saline (PBS) and plating on SBA. Each well was inoculated with 5 μL of bacterial suspension. Negative control wells contained culture medium only, while positive control wells contained media inoculated with bacterial suspension. Further inoculated wells controlled for the antimicrobial effects of the greatest concentration of solvent (DMSO or ethanol) used in any of the test wells (ca. 10%). Microtitre plates were incubated anaerobically at 37° C. for 48 h, and then MICs were determined as the lowest concentration of each compound that prevented visible bacterial growth. MBCs were determined by plating 50 μL from each well showing no visible growth on to SBA and incubating these plates anaerobically at 37° C. for 96 h. […] MICs and MBCs were performed in duplicate.

[1] = Cutibacterium acnes, NCTC737, 48 h, read-out: MIC
[2] = Cutibacterium acnes, NCTC737, lowest concentration that killed >99.9% of the initial inoculum, read-out: MBC

Row | SMILES | MIC [1] | MBC [2] | MBC (MEC) | MIC | MBC (lowest concentration that killed >99.9% of the initial inoculum)
1 | CCCCC/C=C\C/C=C\C/C=C\CCCCC(=O)O [GLA, gamma-linolenic acid] | 64 to 128 µg/mL (≈ 230 to 460 µM) | > 4100 µg/mL | >4096 µg/mL | 64 µg/mL (≈ 230 µM) | –
2 | CC/C=C\C/C=C\C/C=C\C/C=C\C/C=C\CCCC(=O)O [EPA, eicosapentaenoic acid] | 64 to 128 µg/mL (≈ 212 to 423 µM) | > 4100 µg/mL | >4096 µg/mL | 128 µg/mL (≈ 423 µM) | –
3 | NC[C@@H]1O[C@H](O[C@H]2[C@@H](O)[C@H](O[C@@H]3[C@@H](O)[C@H](N)C[C@H](N)[C@H]3O[C@H]3O[C@H](CN)[C@@H](O)[C@H](O)[C@H]3N)O[C@@H]2CO)[C@H](N)[C@@H](O)[C@@H]1O [NEO, Neomycin] | – | – | 16 µg/mL (≈ 26 µM) | 8 µg/mL (≈ 13 µM) | 16 µg/mL (≈ 26 µM)
4 | O=C(O)CCCCCCCC(=O)O [AZA, azelaic acid] | > 4100 µg/mL | – | >4096 µg/mL | >4096 µg/mL | –
5 | O=C(O)c1ccccc1O [SA, salicylic acid] | 64 µg/mL (≈ 463 µM) | > 4100 µg/mL | >4096 µg/mL | – | –
6 | NS(=O)(=O)c1cc(C(=O)O)c(NCc2ccco2)cc1Cl [FUS, furosemide] | 2 µg/mL (≈ 6.05 µM) | 256 µg/mL (≈ 774 µM) | 256 µg/mL (≈ 774 µM) | – | –
7 | O=C(OOC(=O)c1ccccc1)c1ccccc1 [BPO, benzoyl peroxide] | 64 µg/mL (≈ 264 µM) | > 4100 µg/mL | >4096 µg/mL | – | –
